Marks after values point to notes of the source that are not given here.
Assays:
Format in all cases: physicochemical
[1] = pH and particle size of crude cinacalcet emulsions with different oils and phospholipids; design: unit not given here; settings: emulsion; STG 20%; 1% Purified Soy Lecithin; after a single autoclaving cycle
[2] = Zeta potential titration of emulsions (droplet charge vs pH); settings: cinacalcet/1% EYP/10% SBO emulsion
Protocol: Panel A, titration results of 1% EYP/10% SBO in 1 mM dibasic phosphate. Panel B, titration results of cinacalcet/1% EYP/10% SBO in 1 mM dibasic phosphate. Other components of the emulsions include 10% soybean oil, 1% egg lecithin, 2.25% glycerin and water. Panel C, titration results for Compound A. Emulsion composition: SBO 10%, Lecithin 2% at pH 7. Concentration of Compound A was 5 mg/mL for formulation #1 and 1 mg/mL for formulation #2.
The zeta potential measurements were made on a Malvern Zetasizer 4 laser-scattering particle electrophoretic analyzer that measures the electrophoretic mobility and zeta potential distribution. Samples were prepared for the zeta potential titration by diluting the emulsion approximately 2500 fold in 1 mM dibasic phosphate pH 9 and titrating the solution with 100 mM phosphoric acid in 0.5 pH unit increments. […] Theoretically, the emulsions are stabilized by this charge, which prevents the droplets from coalescing. […] In contrast, the cinacalcet emulsions achieve charge neutrality in the range of pH 7-7.5.

[3] = Effect of pH and buffer type on emulsion stability (pH, particle size before/after one autoclave cycle); settings: after one autoclave cycle, 2% egg lecithin
Protocol: Tables 6 summarizes the effect of pH and the buffer type on emulsion stability as measured by the particle size. Emulsions were made using 2% egg lecithin, 2.25% glycerin in water for injection. Particle size and pH were measured after one-autoclave cycle. For all emulsions, particle size before autoclaving as represented by D(4,3) was in a range of 0.30 to 0.45 μm. Emulsions were stable at high pH using TRIS and DEA buffer, and at low pH using phosphate buffer over varying concentrations of cinacalcet and soybean oil. Closer to pH 7 using phosphate buffer, increase in particle size was seen after autoclaving.
Particle size data is reported as D(4,3) before and after one autoclaving cycle.

[4] = DEA 0.05%, target cinacalcet 1 mg/mL, SBO conc. 10
[5] = DEA 0.05%, target cinacalcet 5 mg/mL, SBO conc. 5
[6] = DEA 0.05%, target cinacalcet 10 mg/mL, SBO conc. 10
[7] = DEA 0.1%, target cinacalcet 5 mg/mL, SBO conc. 5
[8] = DEA 0.2%, target cinacalcet 5 mg/mL, SBO conc. 5
[9] = DEA 0.3%, target cinacalcet 5 mg/mL, SBO conc. 5
[10] = No buffer, target cinacalcet 5 mg/mL, SBO conc. 10
[11] = PO4 buffer 15 mM, target cinacalcet 5 mg/mL, SBO conc. 10
[12] = TRIS 5 mM, target cinacalcet 1 mg/mL, SBO conc. 10
[13] = TRIS 5 mM, target cinacalcet 5 mg/mL, SBO conc. 10
[14] = TRIS 5 mM, target cinacalcet 10 mg/mL, SBO conc. 20
[15] = TRIS 10 mM, target cinacalcet 5 mg/mL, SBO conc. 5
[16] = TRIS 15 mM, target cinacalcet 5 mg/mL, SBO conc. 5
[17] = TRIS 20 mM, target cinacalcet 5 mg/mL, SBO conc. 5

With `C[C@@H](NCCCc1cccc(C(F)(F)F)c1)c1cccc2ccccc12` [Cinacalcet, N-(1-(R)-(1-naphthyl)ethyl]-3-[3-(trifluoromethyl)phenyl]-1-aminopropane] the “D(4, 3)” value [1] was 0.94^a, the “droplet charge of emulsion” value ([2]; pH of about 9, 1 mM dibasic phosphate) was “net negative charge” and the “pH range in which emulsion achieves charge neutrality” value ([2]; titration in 1 mM dibasic phosphate) was 7-7.5. The “D(4, 3)” value [3, 4] was 0.44 μm, the pH [3, 4] was 8.81 and the “D(4, 3)” value [3, 5] was 0.39 μm. For the same compound, the pH [3, 5] was 8.77, the “D(4, 3)” value [3, 6] was 0.41 μm and the pH [3, 6] was 8.82. The “D(4, 3)” value [3, 7] was 0.40 μm, the pH [3, 7] was 8.95 and the “D(4, 3)” value [3, 8] was 0.35 μm. The pH [3, 8] was 9.13, the “D(4, 3)” value [3, 9] was 0.36 μm and the pH [3, 9] was 9.12. The “D(4, 3)” value [3, 10] was 1.48 μm, the pH [3, 10] was 8.45 and the pH ([3]; PO4 buffer 10 mM (first of two emulsions), target cinacalcet 5 mg/mL, SBO conc. 5) was 6.36. For the same compound, the pH ([3]; PO4 buffer 10 mM (second of two emulsions), target cinacalcet 5 mg/mL, SBO conc. 5) was 6.78, the “D(4, 3)” value ([3]; PO4 buffer 10 mM, pH 6.36, target cinacalcet 5 mg/mL, SBO conc. 5) was 0.39 μm and the “D(4, 3)” value ([3]; PO4 buffer 10 mM, pH 6.78, target cinacalcet 5 mg/mL, SBO conc. 5) was 0.76 μm. For the same compound, the “D(4, 3)” value [3, 11] was 1.59 μm, the pH [3, 11] was 7.15 and the “D(4, 3)” value [3, 12] was 0.48 μm. For the same compound, the pH [3, 12] was 8.75, the pH ([3]; TRIS 5 mM, target cinacalcet 5 mg/mL, SBO conc. 5) was 8.80 and the “D(4, 3)” value [3, 13] was 0.32 μm. The pH [3, 13] was 8.87, the pH ([3]; TRIS 5 mM, target cinacalcet 10 mg/mL, SBO conc. 10) was 8.82 and the “D(4, 3)” value [3, 14] was 0.36 μm. The pH [3, 14] was 8.82, the “D(4, 3)” value [3, 15] was 0.30 μm and the pH [3, 15] was 9.06. For the same compound, the “D(4, 3)” value [3, 16] was 0.34 μm, the pH [3, 16] was 9.04 and the “D(4, 3)” value [3, 17] was 0.29 μm. The pH [3, 17] was 9.13.

From US8779004B2, “Stable emulsion formulations” (Amgen, Inc., priority 2006, dated 2014)
